Entries after “also recorded” stand apart in the source; their conditions may differ.
How the values were obtained:
[1] = tested on: AR; experiment: Androgen-responsive luciferase reporter assay in C2C12 cells; format: cell-based, murine; settings: treated overnight, FIG. 2A
Text: (§1) Luciferase Reporter Assay. Cells were transfected using Lipofectamine Plus (Invitrogen) with a normalization plasmid (pRL-SV40, Promega) and an androgen responsive plasmid (MMTV-luciferase or PSA-luciferase) as described in Jones et al, ACS Chem Biol, 3(7):412-8 (2008), and, where indicated, with an shRNA plasmid targeting FOXM1 (adapted for mouse FOXM1 sequence targeting) a scrambled control shRNA plasmid, or ARQ24 or ARQ65 plasmids. Christensen et al, PLoS One, 8(1):e54556 (2013). The following day, cells and drugs were distributed to 96-well plates. 24 hours later, luciferase activity was assessed by a dual luciferase assay kit (Promega) on the Tecan plate reader. Samples were run in quadruplicates and a Student's t test was performed to determine significance, where p<0.05 was considered significant.
In order to identify potential cell-type selective AR modulators, the FRET-based assay of AR conformation change was utilized. AR signaling is a complex process involving many steps in addition to ligand binding. One crucial step is the ligand-induced conformational change of AR, which brings the carboxy (C)- and amino (N)-termini of the receptor together. Full length AR with cyan fluorescent protein (CFP) or yellow fluorescent protein (YFP) fused to either end (CARY) produces a FRET signal upon AR conformation change (FIG. 1A). This produces an accurate and quantifiable read-out of AR activity. Jones et al, ACS Chem Biol, 3(7):412-8 (2008). Because the interest was in the potential of neuron selective AR inhibitors for treatment of SBMA, the initial screen was carried out in CARY-transfected GT1-7 cells, which are a mouse model of hypothalamic neurons. Liposits et al, Endocrinology, 129(3):1575-83 (1991). Cells were plated in 96 wells and treated with library compounds 24 hours prior to accessing conformational changes by FRET. […] Candidate hits were then further evaluated by dose response. […] In addition to FRET, AR transcriptional activity was also assessed in several cell lines by transfecting cells with a luciferase reporter driven by the human PSA promoter. […]

[2] = tested on: AR; experiment: Androgen-responsive luciferase reporter assay in GT1-7 cells; format: cell-based, murine; settings: for inhibition of AR transcriptional activity (luciferase): GT1-7 cells, treated overnight, FIG. 2A; for Fold Difference: GT1-7 luciferase
Procedure: Luciferase Reporter Assay. […] The following day, cells and drugs were distributed to 96-well plates. 24 hours later, luciferase activity was assessed by a dual luciferase assay kit (Promega) on the Tecan plate reader. Samples were run in quadruplicates and a Student's t test was performed to determine significance, where p<0.05 was considered significant.
In order to identify potential cell-type selective AR modulators, the FRET-based assay of AR conformation change was utilized. AR signaling is a complex process involving many steps in addition to ligand binding. One crucial step is the ligand-induced conformational change of AR, which brings the carboxy (C)- and amino (N)-termini of the receptor together. Full length AR with cyan fluorescent protein (CFP) or yellow fluorescent protein (YFP) fused to either end (CARY) produces a FRET signal upon AR conformation change (FIG. 1A). This produces an accurate and quantifiable read-out of AR activity. […] Cells were plated in 96 wells and treated with library compounds 24 hours prior to accessing conformational changes by FRET. […] Candidate hits were then further evaluated by dose response. […] In addition to FRET, AR transcriptional activity was also assessed in several cell lines by transfecting cells with a luciferase reporter driven by the human PSA promoter.

[3] = biological target: T1, AR (Rattus norvegicus, UniProt P15207); experiment: Androgen-responsive luciferase reporter assay in L6 skeletal muscle cells; format: cell-based; settings: FIG. 2B
T1 construct: endogenous in cells; host or cells: L6 myoblasts
T1 sequence (P15207 1-902): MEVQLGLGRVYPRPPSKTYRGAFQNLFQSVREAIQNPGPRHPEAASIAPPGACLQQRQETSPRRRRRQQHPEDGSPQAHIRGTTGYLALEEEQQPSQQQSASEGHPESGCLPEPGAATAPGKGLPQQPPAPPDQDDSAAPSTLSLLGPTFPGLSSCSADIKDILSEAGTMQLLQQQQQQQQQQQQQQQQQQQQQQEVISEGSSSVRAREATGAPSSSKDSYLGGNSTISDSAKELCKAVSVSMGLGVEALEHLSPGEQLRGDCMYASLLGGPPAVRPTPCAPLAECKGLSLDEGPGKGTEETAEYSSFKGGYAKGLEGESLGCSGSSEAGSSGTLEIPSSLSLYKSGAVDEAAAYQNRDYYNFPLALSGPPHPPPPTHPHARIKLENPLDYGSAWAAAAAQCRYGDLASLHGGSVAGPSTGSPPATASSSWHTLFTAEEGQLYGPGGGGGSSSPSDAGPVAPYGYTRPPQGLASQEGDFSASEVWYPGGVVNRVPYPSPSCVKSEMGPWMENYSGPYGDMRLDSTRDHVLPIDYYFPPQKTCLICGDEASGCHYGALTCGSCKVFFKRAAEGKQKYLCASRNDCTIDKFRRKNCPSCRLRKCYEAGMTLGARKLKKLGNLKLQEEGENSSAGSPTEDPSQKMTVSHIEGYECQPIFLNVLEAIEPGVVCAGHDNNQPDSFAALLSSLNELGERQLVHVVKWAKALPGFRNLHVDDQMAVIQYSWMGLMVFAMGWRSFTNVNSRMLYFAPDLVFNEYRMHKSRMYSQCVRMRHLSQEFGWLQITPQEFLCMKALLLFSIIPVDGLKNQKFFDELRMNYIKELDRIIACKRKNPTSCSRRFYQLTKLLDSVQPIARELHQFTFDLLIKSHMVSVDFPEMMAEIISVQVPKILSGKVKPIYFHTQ
Text: as §1
The ability of thiostrepton to inhibit AR activity in additional neuronal cells, including ReNcell CX cells PC12 cells, and in rat L6 skeletal muscle cells was examined (FIG. 2B). Donato et al, BMC Neurosci, 8:36 (2007); Yaffe, Proc Natl Acad Sci USA, 61(2):477-83 (1968).

Row | Structure (SMILES) | inhibition of AR transcriptional activity (luciferase) [1] | inhibition of AR transcriptional activity (luciferase) [2] | Fold Difference ([2]; DHT - 100 nM thiostrepton, Control shRNA) | Fold Difference ([2]; DHT - 100 nM thiostrepton, FOXM1 shRNA) | Fold Difference ([2]; DHT-10 nM thiostrepton, Control shRNA) | Fold Difference ([2]; DHT-10 nM thiostrepton, FOXM1 shRNA) | potency of thiostrepton on AR activity after decreasing FOXM1 expression ([2]; FOXM1 shRNA vs control, GT1-7, FIG. 3B) | inhibition of AR activity (luciferase) [3]
1 | C=C(NC(=O)C(=C)NC(=O)c1csc(C2=N[C@@H]3c4csc(n4)[C@H]4NC(=O)c5csc(n5)[C@H]([C@](C)(O)[C@@H](C)O)NC(=O)[C@H]5CSC(=N5)/C(=C/C)NC(=O)[C@H]([C@@H](C)O)NC(=O)c5csc(n5)[C@]3(CC2)NC(=O)[C@H](C)NC(=O)C(=C)NC(=O)C(=C)NC(=O)[C@H](C(C)C)N[C@@H]2C=Cc3c([C@H](C)O)cc(nc3[C@H]2O)C(=O)O[C@@H]4C)n1)C(N)=O [NSC285116, siomycin A] | not C2C12 cells | selectively inhibit AR activity |  |  |  |  |  | 
2 | C=C(NC(=O)C(=C)NC(=O)c1csc(C2=N[C@@H]3c4csc(n4)[C@H]4NC(=O)c5csc(n5)[C@H]([C@](C)(O)[C@@H](C)O)NC(=O)[C@H]5CSC(=N5)/C(=C/C)NC(=O)[C@H]([C@@H](C)O)NC(=O)c5csc(n5)[C@]3(CC2)NC(=O)[C@H](C)NC(=O)C(=C)NC(=O)[C@H](C)NC(=O)[C@H]([C@@H](C)CC)N[C@@H]2C=Cc3c([C@H](C)O)cc(nc3[C@H]2O)C(=O)O[C@@H]4C)n1)C(N)=O [thiostrepton] | not C2C12 cells | most potent; also recorded: nanomolar potency; also recorded: selectively inhibit AR activity | 2.04 | 1.62 | 1.54 | 1.34 | diminished the potency | not muscle cells

Reference: patent US11167007B2, “FOXM1 modulators and uses thereof” (City of Hope, priority 2016, dated 2021)
